For data set [1], the target named is hERG potassium channel (Homo sapiens, UniProt Q12809). Description: Whole cell patch clamp of cloned hERG potassium channels expressed in HEK293 cells. Format: cell-based. The settings on record: for IC50: patch clamp, read-out: IC50 for the inhibitory effect on hERG potassium current. An excerpt: For in vitro testing, the functional hERG assay using conventional patch clamp electrophysiology is considered the gold standard for assessment of drug interactions with the hERG potassium channel (Yao et al., Br. J. Pharmacol. 2008, 154, 1446-1456). In this assay, hERG channels are expressed in a human embryonic kidney (HEK293) cell line that lacks endogenous IKr.
The objective of this study was to examine the in vitro effects of test articles on the hERG (human ether-à-go-go-related gene) potassium channel current (a surrogate for IKr, the rapidly activating delayed rectifier cardiac potassium current).
All chemicals used in solution preparation were purchased from Sigma-Aldrich (St. Louis, Mo.) unless otherwise noted and were of ACS reagent grade purity or higher. Stock solutions of the test article and the positive control were prepared in dimethyl sulfoxide (DMSO) and stored frozen. Test article and positive control concentrations were prepared fresh daily by diluting stock solutions into a HEPES-buffered physiological saline (HB-PS) solution (composition in mM): NaCl, 137; KCl, 4.0; CaCl2, 1.8; MgCl2, 1; HEPES, 10; Glucose, 10; pH adjusted to 7.4 with NaOH (prepared weekly and refrigerated until use).
HEK/hERG • Organism: Homo sapiens • Designation: 293 • Tissue: Kidney; Transformed with adenovirus 5 DNA; Transfected with human-ether-a-go-go cDNA • Morphology: Epithelial • Age Stage Embryo • Source Strain: ATCC, Manassas, Va. • Source Substrain ChanTest Corporation, Cleveland, Ohio
HEK293 cells were stably transfected with hERG cDNA. Stable transfectants were selected by coexpression with the G418-resistance gene incorporated into the expression plasmid. Selection pressure was maintained by including G418 in the culture medium. Cells were cultured in Dulbecco's Modified Eagle Medium/Nutrient Mixture F-12 (D-MEM/F-12) supplemented with 10% fetal bovine serum, 100 U/mL penicillin G sodium, 100 μg/mL streptomycin sulfate and 500 μg/mL G418.
All experiments were performed at room temperature. Each cell acted as its own control.
Experiments were performed as outlined in the section entitled Experimental Procedures. Concentrations were selected to evaluate the concentration-response relationship of each test article based on the initial results or the solubility limits in vehicle. Each concentration was tested in at least three cells (n≧3).
Cells were transferred to the recording chamber and superfused with vehicle control solution. Micropipette solution for whole cell patch clamp recordings was composed of (mM): potassium aspartate, 130; MgCl2, 5; EGTA, 5; ATP, 4; HEPES, 10; pH adjusted to 7.2 with KOH. Pipette solution was prepared in batches, aliquoted, stored frozen, and a fresh aliquot was thawed each day. Patch pipettes were made from glass capillary tubing using a P-97 micropipette puller (Sutter Instruments, Novato, Calif.). A commercial patch clamp amplifier was used for whole cell recordings. Before digitization, current records were low-pass filtered at one-fifth of the sampling frequency.
Onset and steady state inhibition of hERG current was measured using a pulse pattern with fixed amplitudes (conditioning prepulse: +20 mV for 2 s; test pulse: −50 mV for 2 s) repeated at 10 s intervals, from a holding potential of −80 mV. Peak tail current was measured during the 2 s step to −50 mV.
Each test article at 10 μM was applied to at least 3 cells (n≧3).
One or more test article concentrations were applied sequentially (without washout between test substance concentrations) in ascending order, to each cell (n≧3). A steady state was maintained for at least 30 s before applying test article or positive control. Peak current was measured until a new steady state was achieved.
Steady state was defined by the limiting constant rate of change with time (linear time dependence). The steady state before and after test article application was used to calculate the percentage of current inhibited at each concentration. […]
On the technique in general: In patch-clamp work, channel activity is measured electrically.

In data set [2] the test system is Plasmodium berghei (KBG-173 strain). Description: Plasmodium berghei assay in vivo (modified Thompson Test) in CD-1 mice. The following applies: bid on days 3, 4 and 5; for Average Days Survival: 31 day experiment. As to the method:
In vivo antimalarial activity was tested in male or female Charles River CD-1 mice that were 4-5 weeks old and weighed 20-25 g They were housed in groups of 3 or 4 in standard plastic cages with wire tops, Bed-o-Cob® bedding, 12 hr/day of light, and maintained at 75° F. They were fed a standard Ralston Purina mouse chow and the cages and bottles were changed twice a week. Test compounds were ground in a mortar and pestle and diluted with enough vehicle to give a volume of 10 mL/kg of mouse weight. The oral doses were prepared in 0.5% hydroxyethylcellulose (Union Carbide Corp. WP 4400)/0.1% Tween-80 (Fisher Scientific T164-500). The amount of drug was calculated on the free base weight. The mice were infected intraperitoneally on day 0 with 5×10^4 erythrocytes parasitized with Plasmodium berghei (KBG-173 strain) from a donor mouse having a parasitemia between 5-10%. On days 3, 4 and 5 the test compounds were administered bid, spaced 6 hr apart, by oral gavage to the mice. Activity was measured by survival, with full activity defined as all animals living at day 31. Partial activity is defined as days of increased survival versus the infected non-treated controls. This in vivo model is a modification of the Thompson Test. For further description see Ager, A. L, Jr. Rodent Malaria Models. In Handbook of Experimental Pharmacology: Antimalarial Drugs. 1. 68/1; Peters, W., Richards, W. H. G., Eds.: Springer-Verlag: Berlin, 1984, pp. 231-33.

[3] abbreviates: human, HEK293 cells stably expressing hERG, pH 7.4, HEK293/hERG, room temperature, read-out: Mean percentage of hERG current inhibited.
Setting [4] is: Plasmodium berghei, 744 h, 4 mg/kg/day oral, CD-1 mice infected with P. berghei, read-out: Number of mice alive at day 31 (converted).
[5] abbreviates: Plasmodium berghei, 744 h, 8 mg/kg/day oral, CD-1 mice infected with P. berghei, read-out: Number of mice alive at day 31 (converted).
Where [6] appears, read: Plasmodium berghei, 744 h, 16 mg/kg/day oral, CD-1 mice infected with P. berghei, read-out: Number of mice alive at day 31 (converted).
Setting [7] is: Plasmodium berghei, 744 h, 32 mg/kg/day oral, CD-1 mice infected with P. berghei, read-out: Number of mice alive at day 31 (converted).
[8] abbreviates: Plasmodium berghei, 744 h, 64 mg/kg/day oral, CD-1 mice infected with P. berghei, read-out: Number of mice alive at day 31 (converted).

Marks after values point to notes of the source that are not given here.

Sequence of hERG potassium channel (Q12809 whole entry): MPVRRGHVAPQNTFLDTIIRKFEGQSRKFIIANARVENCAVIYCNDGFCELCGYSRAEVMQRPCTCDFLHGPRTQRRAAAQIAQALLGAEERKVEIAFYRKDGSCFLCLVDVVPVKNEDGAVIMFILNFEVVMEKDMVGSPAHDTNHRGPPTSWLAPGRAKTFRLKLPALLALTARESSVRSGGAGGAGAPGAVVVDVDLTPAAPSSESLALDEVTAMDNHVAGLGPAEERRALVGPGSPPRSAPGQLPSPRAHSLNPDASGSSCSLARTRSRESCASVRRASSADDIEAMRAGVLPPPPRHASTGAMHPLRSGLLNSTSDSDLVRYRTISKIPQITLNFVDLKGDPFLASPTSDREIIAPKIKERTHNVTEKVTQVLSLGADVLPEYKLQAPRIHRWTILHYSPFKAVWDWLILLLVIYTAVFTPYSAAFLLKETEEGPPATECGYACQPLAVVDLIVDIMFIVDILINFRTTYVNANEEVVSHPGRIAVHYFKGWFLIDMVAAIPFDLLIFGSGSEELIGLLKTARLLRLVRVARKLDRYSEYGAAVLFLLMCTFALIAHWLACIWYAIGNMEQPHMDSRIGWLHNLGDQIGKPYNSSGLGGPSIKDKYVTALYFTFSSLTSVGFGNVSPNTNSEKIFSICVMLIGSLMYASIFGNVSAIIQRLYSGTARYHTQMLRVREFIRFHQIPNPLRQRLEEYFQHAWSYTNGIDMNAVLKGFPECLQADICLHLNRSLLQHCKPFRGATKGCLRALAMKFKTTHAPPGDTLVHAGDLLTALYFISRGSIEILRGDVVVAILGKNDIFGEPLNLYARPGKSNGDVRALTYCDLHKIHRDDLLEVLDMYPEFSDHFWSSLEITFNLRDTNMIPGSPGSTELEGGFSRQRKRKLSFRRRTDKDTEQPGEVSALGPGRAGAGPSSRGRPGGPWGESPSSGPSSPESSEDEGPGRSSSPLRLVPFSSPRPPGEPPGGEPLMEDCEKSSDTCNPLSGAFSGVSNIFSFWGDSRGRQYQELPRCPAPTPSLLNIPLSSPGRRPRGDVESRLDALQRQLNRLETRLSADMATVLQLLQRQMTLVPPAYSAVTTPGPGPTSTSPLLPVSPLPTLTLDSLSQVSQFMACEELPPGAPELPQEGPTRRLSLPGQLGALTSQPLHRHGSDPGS

The IC50 is the concentration that gives 50% inhibition. Take `CC(C)(C)NCc1cc(C(C)(C)C)cc(-c2ccc(C(F)(F)F)nc2)c1O.Cl` [Example 1, 4-(tert-Butyl)-2-((tert-butylamino)methyl)-6-(6-(trifluoromethyl)pyridin-3-yl)phenol hydrochloride]: the IC50 in data set [1] (HEK293/hERG) was determined as 9.8 µM. Further, the “Hill coefficient of hERG inhibition” value in data set [1] (fit of concentration-response data) was 1.4. Further, the inhibition at 3 µM in data set [1] (setting [3]) was 18.4%. Besides, the inhibition at 10 µM in data set [1] (setting [3]) came to 48.5%. Moreover, in data set [1] (setting [3]), the inhibition at 30 µM is 84%. Further, the inhibition at 100 µM in data set [1] (human, HEK293 cells stably expressing hERG, pH 7.4, 100 μM, HEK293/hERG, room temperature, read-out: Mean percentage of hERG current inhibited) came to 98.2%. In addition, the “Average Days Survival” value in data set [2] (2 mg/kg/day oral) is over 27 days; in data set [2] (4 mg/kg/day oral), >31* days; in data set [2] (8 mg/kg/day oral) it was >31* days; in data set [2] (16 mg/kg/day oral) it was >31* days; in data set [2] (32 mg/kg/day oral), >31* days; in data set [2] (64 mg/kg/day oral), >31* days. Also, in data set [2] (Plasmodium berghei, 744 h, 2 mg/kg/day oral, CD-1 mice infected with P. berghei, read-out: Number of mice alive at day 31 (converted)), the responders at 2 mg/kg was 71.4%. In addition, in data set [2] (setting [4]), the responders at 4 mg/kg was 100%. For the same compound, the responders at 8 mg/kg in data set [2] (setting [5]) is 100%. In data set [2] (setting [6]), the responders at 16 mg/kg is 100%. Moreover, in data set [2] (setting [7]), the responders at 32 mg/kg was 100%. Moreover, in data set [2] (setting [8]), the responders at 64 mg/kg was 100%.
Take `CC(C)(C)NCc1cc(C(C)(C)C)cc(-c2cnc(C(F)(F)F)nc2)c1O.Cl` [Example 33, 4-(tert-Butyl)-2-((tert-butylamino)methyl)-6-(2-(trifluoromethyl)pyrimidin-5-yl)phenol hydrochloride]: in data set [1] (HEK293/hERG), the IC50 was over 10 µM. Besides, the inhibition at 3 µM in data set [1] (setting [3]) came to 4.1%. Besides, the inhibition at 10 µM in data set [1] (setting [3]) was 12.9%. For the same compound, the inhibition at 30 µM in data set [1] (setting [3]) came out at 24.3%. Besides, the “Average Days Survival” value in data set [2] (4 mg/kg/day oral) is reported as over 30 days; in data set [2] (8 mg/kg/day oral), >31* days; in data set [2] (16 mg/kg/day oral) it was >31* days; in data set [2] (32 mg/kg/day oral), >31* days; in data set [2] (64 mg/kg/day oral) it was >31* days. In addition, the responders at 4 mg/kg in data set [2] (setting [4]) is 85.7%. For the same compound, the responders at 8 mg/kg in data set [2] (setting [5]) was 100%. Further, in data set [2] (setting [6]), the responders at 16 mg/kg is 100%. For the same compound, the responders at 32 mg/kg in data set [2] (setting [7]) was 100%. In addition, the responders at 64 mg/kg in data set [2] (setting [8]) was 100%.
For the compound `CC(C)(C)NCc1cc(C(C)(C)C)cc(-c2cnc(C(F)(F)F)c(F)c2)c1O.Cl` [Example 34, 4-(tert-Butyl)-2-((tert-butylamino)methyl)-6-(5-fluoro-6-(trifluoromethyl)pyridin-3-yl)phenol hydrochloride], in data set [1] (HEK293/hERG), the IC50 was over 10 µM. Besides, in data set [1] (human, HEK293 cells stably expressing hERG, pH 7.4, 1 μM, HEK293/hERG, room temperature, read-out: Mean percentage of hERG current inhibited), the inhibition at 1 µM was determined as 2.6%. The inhibition at 3 µM in data set [1] (setting [3]) worked out at 11.3%. In addition, the inhibition at 10 µM in data set [1] (setting [3]) was 15.9%. Moreover, the “Average Days Survival” value is on record as over 28 days in data set [2] (4 mg/kg/day oral); >31* days in data set [2] (8 mg/kg/day oral); >31* days in data set [2] (16 mg/kg/day oral); >31* days in data set [2] (32 mg/kg/day oral); >31* days in data set [2] (64 mg/kg/day oral). For the same compound, the responders at 4 mg/kg in data set [2] (setting [4]) is 85.7%. In data set [2] (setting [5]), the responders at 8 mg/kg is 100%. For the same compound, the responders at 16 mg/kg in data set [2] (setting [6]) is 100%. Moreover, in data set [2] (setting [7]), the responders at 32 mg/kg is 100%. The responders at 64 mg/kg in data set [2] (setting [8]) was 100%.

The record behind these values is patent publication US9409893B2, “Heteroaryl derivatives and uses thereof” (Jacobus Pharmaceutical Company, Inc., priority 2012, dated 2016).
